Laboratory results published in patent US12692221B2 (priority 2024, dated 2026).

Tested on: Balb/c mice sensitized to OVA
Assay: Airway hyperresponsiveness in OVA-induced murine allergic asthma, whole-body plethysmography with methacholine challenge
Format: in vivo, mouse
Conditions: 0.5 mg/kg intraperitoneal + OVA, measured 48 hours after final OVA exposure
Experimental: Methods: Experiments were conducted in accordance with the methods of Flanagan et al., ACS Pharmacol Transl Sci. 2020 Aug. 13; 4(2):488-502 with modifications. Briefly, Balb/c mice were sensitized to OVA via IP injection. Mice were then exposed repeatedly to aerosolized OVA to induce acute allergic airway inflammation. Airway responsiveness was assessed using non-invasive whole-body plethysmography (WBP) and methacholine challenge. Lung tissue was analyzed to quantify inflammation and mucus production.
Mice were separated into three experimental groups: 1) Naive mice were not exposed to OVA sensitization and challenge, 2) OVA mice were sensitized and challenged with the allergen OVA to induce allergic airway inflammation and hyperresponsiveness, and 3) 0.5 mg/kg exemplary compound+OVA. The exemplary compound was administered to mice via intraperitoneal injection. Respiratory parameters were measured 48 hours after the final OVA exposure. Airway responsiveness to methacholine was measured using noninvasive whole-body plethysmography (WBP) in unrestrained mice.
Baseline PenH values were recorded for each experimental group, followed by exposure to aerosolized saline or increasing concentrations of methacholine, to assess the sensitivity and reactivity of airways due to its bronchoconstricting activity. PenH values were recorded, and data were analyzed using software. […]

COCc1cc(CCN)c(OC)cc1CC(C)C [Compound 2CiBu-5MM, 2-[4-isobutyl-2-methoxy-5-(methoxymethyl)phenyl]ethanamine] was tested, and the “PenH response to methacholine (airway hyperresponsiveness)” value was “reduced PenH values to levels representative of normal airway function”.
